Values of other authors as cited in US10610591B2, “Light responsive quantum dot drug delivery system” (Nanoco Technologies Ltd., priority 2017, dated 2020).

Experiments:
[1] = not given; remark: listed apart in the source
[2] = pH 7.4

7-Ethyl-10-hydroxycamptothecin
solubility in DMSO (DMSO): 2000 µg/mL | solubility in water (water): essentially insoluble in water

CC(C)(C#N)c1cc(Cn2cncn2)cc(C(C)(C)C#N)c1 [anastrozole, alpha,alpha,alpha′,alpha′-tetramethyl-5-(1H,1,2,4-triazol-1-ylmethyl)-m-benzenediacetonitrile]
log P (log Po/w, log Poct/wat, log Pexp) ([1]; octanol/water): 2.4

CC1=C(CC(=O)O)c2cc(F)ccc2/C1=C\c1ccc([S+](C)[O-])cc1 (centres unmarked) [sulindac]
log P^N (neutral) ([1]; neutral): 3.60 | log D7.4 [2]: 0.12
